Data on eight compounds can be found in EP0181109B1, “N6-benzopyrano- and benzothiopyrano-adenosines” (WARNER-LAMBERT COMPANY, priority 1984, dated 1986).

One data set has as its target T1, adenosine A2 receptor (Rattus norvegicus, UniProt P30543).
T1 construct: Brains were thawed and then kept on ice while the striata were dissected out; tissue Pel-Freez (Rogers, Arkansas); host or cells: rat striatum (membranes)
The experiment in a line: Adenosine Receptor Binding - A2 Receptor Affinity (RBA2), [3H]NECA displacement in striatal membranes. The note with it: 4 nM [3H]NECA, 50 nM N6-cyclopentyladenosine, 60 minutes at 25°C, read-out: RBA-2 (IC50, A2 receptor affinity). As for the experimental part:
Brains from 200-500 g mixed sex Sprague-Dawley rats were purchased from Pel-Freez (Rogers, Arkansas). Fresh brains from male Long-Evans hooded rats (Blue Spruce Farms, Altamont, NY) gave essentially identical results. Brains were thawed and then kept on ice while the striata were dissected out. Striata were disrupted in 10 vol of ice-cold 50 mM Tris·HCl (pH 7.7 at 25°C, pH 8.26 at 5°C) (Tris) for 30 seconds in a Polytron PT―10 (Brinkmann) at setting 5. The suspension was centrifuged at 50,000 xg for ten minutes, the supernatant discarded, the pellet resuspended in 10 vol ice-cold Tris as above, recentrifuged, resuspended at 1 g/5 ml, and stored in plastic vials at -70°C (stable for at least six months). When needed, tissue was thawed at room temperature, disrupted in a Polytron, and kept on ice until used.
All incubations were for 60 minutes at 25°C in 12 x 75 mm glass tubes containing 1 ml Tris with 5 mg original tissue weight of rat weight of rat striatal membranes, 4 nM [^3H]-N-ethyl adenosine-5'-carboxamide ([^3H]NECA), 50 nM N^s-cyclopentyladenosine (to eliminate A1 receptor binding), 10 mM MgCI2, 0.1 units/ml of adenosine deaminase and 1% dimethylsulfoxide. N^6-Cyclopentyladenosine was dissolved at 10 mM in 0.02 N HCI and diluted in Tris. Stock solutions and dilutions of N^6-cyclopentyladenosine could be stored at -20°C for several months. Test compounds were dissolved at 10 mM in dimethylsulfoxide on the same day as the experiment, and diluted in dimethylsulfoxide to 100x the final incubation concentration. Control incubations received an equal volume (10 µl) of dimethylsulfoxide; the resulting concentration of dimethylsulfoxide had no effect on binding. [^3H]NECA was diluted to 40 nM in Tris. The membrane suspension (5 mg/0.79 ml) contained sufficient MgC12 and adenosine deaminase to give 10 mM and 0.1 units/ml, respectively, final concentration in the incubation. […] After all additions, the rack of tubes was vortexed, and the tubes were then incubated for 60 min at 25°C in a shaking water bath. The rack of tubes was vortexed an additional time halfway through the incubation.
Incubations were terminated by filtration through 2.4 cm GF/B filters under reduced pressure. Each tube was filtered as follows: the contents of the tube were poured onto the filter, 4 ml of ice-cold Tris were added to the tube and the contents poured onto the filter, and the filter was washed twice with 4 ml of ice-cold Tris. The filtration was complete in about 12 seconds. Filters were put in scintillation vials, 8 ml of Formula 947 scintillation fluid added, and the vials left overnight, shaken, and counted in a liquid scintillation counter at 40% efficiency.
Nonspecific binding was defined as binding in the presence of […] N^6-cyclopentyladenosine, and specific binding was defined as total binding minus nonspecific binding. The IC50 was calculated by weighted nonlinear least squares curve-fitting to the mass action equation. [formula] • where Y is cpm bound • T is cpm total binding without drug • S is cpm specific binding without drug • D is the concentration of drug • and K is the IC50 of the drug Weighting factors were calculated under the assumption that the standard deviation was proportional to the predicted value of Y. Nonspecific binding was treated as a very large (infinite) concentration of drug in the computer analysis.

Another data set has as its system spontaneous locomotion. The experiment in a line: Mouse Activity and Screen Test Procedure (MAST): locomotor activity in actophotometer. As to conditions: one hour prior to testing. In kind it is in vivo, Swiss-Webster male mice. As for the experimental part:
(§1) Nine unfasted Swiss-Webster male mice weighing 20-30 g are equally divided into three groups for each drug dose to be tested. There is, data for each dose level was generated by three separate groups of three mice each.
(§2) A minimum of three dose levels (10, 30, and 100 mg/kg) are tested for each drug. Treatments are administered intraperitoneally one hour prior to testing. All dosages are calculated as parent compound and given in volumes of 10 ml/kg. Compounds are dissolved or suspended in 0.2% Methocel. Control animals are injected with Methocel.
The actophotometer consists of a cylindrical chamber whose center is occupied by another cylinder which contains the illumination for six photocells located on the perimeter of the chamber. Six light-beam interruptions equal one count. Locomotor activity is recorded by computer at ten minute intervals for 60 minutes.
Data: The data obtained from the screen test are expressed as percent of mice falling off the screen. Data derived from locomotor activity of drug treated mice are compared to the activity of vehicle treated animals and are expressed as percent inhibition of spontaneous locomotion. All percentages reported for inhibition of locomotion (LI) are based upon data accumulated for one hour. […] An overall dose rating is obtained by the following criteria:
LAD refers to the lowest dose at which an A rating is achieved. […] The compounds are identified in the Examples.

The test system of data set [1] is mice falling off the inverted screen. The experiment in a line: Mouse Activity and Screen Test Procedure (MAST): screen test (ST). The format is in vivo, Swiss-Webster male mice. The note with it: one hour postinjection, percent of mice falling off the screen.
Excerpt: The compounds of the invention are new chemical substances which are useful as pharmaceutical agents for the treatment of psychoses. The antipsychotic activity of representative compounds of the invention was established by the Mouse Activity and Screen Test Procedure (MAST) described below.
as §1, §2
Testing: A two part testing procedure is started one hour postinjection. First, the screen test (ST) is performed (see Pharmac. Biochem. Behav. 6,351-353,1977). Briefly this test consists of placing mice on individual wire screens which are then rotated 180 degrees at the start of a 60 second observation period. The number of mice falling off the inverted screen is recorded.
Data: The data obtained from the screen test are expressed as percent of mice falling off the screen. Data derived from locomotor activity of drug treated mice are compared to the activity of vehicle treated animals and are expressed as percent inhibition of spontaneous locomotion. All percentages reported for inhibition of locomotion (LI) are based upon data accumulated for one hour. Both phases of testing are graded: A=60-100%; C=31-59%; and N=0-30%. An overall dose rating is obtained by the following criteria:
LAD refers to the lowest dose at which an A rating is achieved. […] Utilizing this procedure, an overall dose rating of A was obtained for the noted compound at the indicated dose. The compounds are identified in the Examples.

T1 sequence (P30543 whole entry): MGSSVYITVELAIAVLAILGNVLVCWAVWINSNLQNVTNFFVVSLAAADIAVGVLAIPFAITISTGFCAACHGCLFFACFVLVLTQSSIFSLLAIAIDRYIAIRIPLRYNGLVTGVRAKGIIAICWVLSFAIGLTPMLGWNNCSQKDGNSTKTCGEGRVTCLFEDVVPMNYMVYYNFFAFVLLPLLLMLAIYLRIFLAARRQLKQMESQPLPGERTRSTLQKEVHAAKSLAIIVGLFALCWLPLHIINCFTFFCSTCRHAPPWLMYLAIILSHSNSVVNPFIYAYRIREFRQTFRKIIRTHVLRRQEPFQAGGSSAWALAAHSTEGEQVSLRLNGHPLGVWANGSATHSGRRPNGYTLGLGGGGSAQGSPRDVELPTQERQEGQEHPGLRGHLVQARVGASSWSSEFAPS

A word on the IC50: it is the concentration that gives 50% inhibition. `C[C@H]1Oc2ccccc2C[C@@H]1Nc1ncnc2c1ncn2[C@@H]1O[C@H](CO)[C@@H](O)[C@H]1O` (relative stereo) [Example 8, N^l-[trans-2-Methyl,-3-chromanylamino]adenosine]: the 50% inhibitory concentration (IC50) on adenosine A2 receptor turned out to be 490 nM. Moreover, the “Inhibition of Mouse Locomotion Activity” value in the data set on spontaneous locomotion (1 mg/kg intraperitoneally) is reported as 52%; in the data set with spontaneous locomotion (3 mg/kg intraperitoneally) it was 84%; with spontaneous locomotion (10 mg/kg intraperitoneally), 95%; in the data set on spontaneous locomotion (30 mg/kg intraperitoneally), 98%; in the data set with spontaneous locomotion (100 mg/kg intraperitoneally) it was 99%. Further, the “Screen Test Failure” value was 0% in data set [1] (1 mg/kg intraperitoneally); 11% in data set [1] (3 mg/kg intraperitoneally); 0% in data set [1] (10 mg/kg intraperitoneally); 11% in data set [1] (30 mg/kg intraperitoneally); 33% in data set [1] (100 mg/kg intraperitoneally).

Turning to `OC[C@H]1O[C@@H](n2cnc3c(NC4CCOc5ccccc54)ncnc32)[C@H](O)[C@@H]1O` (stereo partly shown) [Example 1], the half-inhibitory concentration (IC50) at adenosine A2 receptor worked out at 600 nM. For the same compound, the “Inhibition of Mouse Locomotion Activity” value in the data set on spontaneous locomotion (3 mg/kg intraperitoneally) came out at 91%; in the data set on spontaneous locomotion (10 mg/kg intraperitoneally) it was 94%; with spontaneous locomotion (30 mg/kg intraperitoneally) it was 97%. For the same compound, the “Screen Test Failure” value in data set [1] (3 mg/kg intraperitoneally) is 33%; in data set [1] (10 mg/kg intraperitoneally) it was 33%; in data set [1] (30 mg/kg intraperitoneally) it was 22%.

As to `OC[C@H]1O[C@@H](n2cnc3c(NC4CSc5ccccc5C4)ncnc32)[C@H](O)[C@@H]1O` (stereo partly shown) [Example 2], the IC50 on adenosine A2 receptor was found to be 340 nM. Further, the “Inhibition of Mouse Locomotion Activity” value was determined as 34% with spontaneous locomotion (1 mg/kg intraperitoneally); 60% in the data set on spontaneous locomotion (3 mg/kg intraperitoneally); 96% with spontaneous locomotion (10 mg/kg intraperitoneally); 98% in the data set on spontaneous locomotion (30 mg/kg intraperitoneally); 99% with spontaneous locomotion (100 mg/kg intraperitoneally). Moreover, the “Screen Test Failure” value in data set [1] (1 mg/kg intraperitoneally) was 11%; in data set [1] (3 mg/kg intraperitoneally), 0%; in data set [1] (10 mg/kg intraperitoneally), 11%; in data set [1] (30 mg/kg intraperitoneally), 56%; in data set [1] (100 mg/kg intraperitoneally) it was 100%.

Consider `COc1ccc2c(c1)OCC(Nc1ncnc3c1ncn3[C@@H]1O[C@H](CO)[C@@H](O)[C@H]1O)C2` (stereo partly shown) [Example 3], for which the half-inhibitory concentration (IC50) on adenosine A2 receptor was 1360 nM. In addition, the “Inhibition of Mouse Locomotion Activity” value is reported as 25% in the data set with spontaneous locomotion (1 mg/kg intraperitoneally), 58% in the data set on spontaneous locomotion (3 mg/kg intraperitoneally), 89% in the data set on spontaneous locomotion (10 mg/kg intraperitoneally) and 97% in the data set with spontaneous locomotion (30 mg/kg intraperitoneally). In addition, the “Screen Test Failure” value is 0% in data set [1] (1 mg/kg intraperitoneally), 0% in data set [1] (3 mg/kg intraperitoneally), 22% in data set [1] (10 mg/kg intraperitoneally) and 22% in data set [1] (30 mg/kg intraperitoneally).

With `OC[C@H]1O[C@@H](n2cnc3c(NC4COc5ccccc5C4)ncnc32)[C@H](O)[C@@H]1O` (stereo partly shown) [Example 4, N^6-[3-Chromanylamino]adenosine], on adenosine A2 receptor, the IC50 is 610 nM. The “Inhibition of Mouse Locomotion Activity” value with spontaneous locomotion (1 mg/kg intraperitoneally) was 36%; in the data set on spontaneous locomotion (3 mg/kg intraperitoneally), 87%; in the data set on spontaneous locomotion (10 mg/kg intraperitoneally) it was 94%; in the data set with spontaneous locomotion (30 mg/kg intraperitoneally) it was 99%; with spontaneous locomotion (100 mg/kg intraperitoneally), 98%. The “Screen Test Failure” value in data set [1] (1 mg/kg intraperitoneally) came out at 22%; in data set [1] (3 mg/kg intraperitoneally) it was 11%; in data set [1] (10 mg/kg intraperitoneally) it was 11%; in data set [1] (30 mg/kg intraperitoneally) it was 100%; in data set [1] (100 mg/kg intraperitoneally) it was 88%.

Consider `OC[C@H]1O[C@@H](n2cnc3c(NC4COc5c(Cl)cccc5C4)ncnc32)[C@H](O)[C@@H]1O` (stereo partly shown) [Example 5], for which the IC50 at adenosine A2 receptor turned out to be 210 nM. Besides, the “Inhibition of Mouse Locomotion Activity” value in the data set with spontaneous locomotion (1 mg/kg intraperitoneally) is reported as -14%; in the data set with spontaneous locomotion (3 mg/kg intraperitoneally), 30%; in the data set on spontaneous locomotion (10 mg/kg intraperitoneally) it was 89%; with spontaneous locomotion (30 mg/kg intraperitoneally), 97%; with spontaneous locomotion (100 mg/kg intraperitoneally), 99%. For the same compound, the “Screen Test Failure” value in data set [1] (1 mg/kg intraperitoneally) was 0%; in data set [1] (3 mg/kg intraperitoneally) it was 0%; in data set [1] (10 mg/kg intraperitoneally) it was 22%; in data set [1] (30 mg/kg intraperitoneally) it was 55%; in data set [1] (100 mg/kg intraperitoneally) it was 44%.

With `COc1ccc2c(c1)CC(Nc1ncnc3c1ncn3[C@@H]1O[C@H](CO)[C@@H](O)[C@H]1O)CO2` (stereo partly shown) [Example 6], at adenosine A2 receptor, the IC50 stood at 1090 nM. The “Inhibition of Mouse Locomotion Activity” value in the data set on spontaneous locomotion (1 mg/kg intraperitoneally) amounted to 45%; in the data set on spontaneous locomotion (3 mg/kg intraperitoneally), 77%; in the data set with spontaneous locomotion (10 mg/kg intraperitoneally) it was 98%; with spontaneous locomotion (30 mg/kg intraperitoneally), 98%; with spontaneous locomotion (100 mg/kg intraperitoneally), 100%. Also, the “Screen Test Failure” value came to 0% in data set [1] (1 mg/kg intraperitoneally); 0% in data set [1] (3 mg/kg intraperitoneally); 77% in data set [1] (10 mg/kg intraperitoneally); 99% in data set [1] (30 mg/kg intraperitoneally); 99% in data set [1] (100 mg/kg intraperitoneally).

For `CC1Oc2ccccc2CC1Nc1ncnc2c1ncn2C1OC(CO)C(O)C1O` (stereo not drawn) [Example 7, N^6-[cis-2-Methyl-3-chromanylamino]adenosine], the IC50 on adenosine A2 receptor is 1840 nM. For the same compound, the “Inhibition of Mouse Locomotion Activity” value in the data set on spontaneous locomotion (0.3 mg/kg intraperitoneally) was found to be 6%; with spontaneous locomotion (1 mg/kg intraperitoneally) it was 57%; with spontaneous locomotion (3 mg/kg intraperitoneally), 95%; in the data set on spontaneous locomotion (9.0 mg/kg intraperitoneally), 96%; in the data set on spontaneous locomotion (30 mg/kg intraperitoneally) it was 93%. The “Screen Test Failure” value in data set [1] (0.3 mg/kg intraperitoneally) worked out at 0%; in data set [1] (1 mg/kg intraperitoneally), 0%; in data set [1] (3 mg/kg intraperitoneally), 22%; in data set [1] (9.0 mg/kg intraperitoneally), 55%; in data set [1] (30 mg/kg intraperitoneally), 100%.
